Test results from publication PMC8342802, “A Novel Bacteriocin From Lactobacillus Pentosus ZFM94 and Its Antibacterial Mode of Action” (Frontiers in Nutrition, 2021).
Where no end group is shown, it is not given here. [ ]: non-standard residue; d: D form. Abu = CC[C@H](N)C(=O)O; Dhb = C/C=C(\N)C(=O)O; Dha = C=C(N)C(=O)O

Key:
[1] = binding to lipid II, agar well-diffusion after mixing with lipid II; assay type: cell-based, Micrococcus luteus; conditions: 10 μm peptide with 20 μm lipid II, 4°C for 1 h, indicator M. luteus 10209
Protocol: Studies have shown that lipid II was the target of nisin ([25]), and the combination of lipid II and nisin can mediate the formation of pores. Nisin and pentocin ZFM94 were mixed with lipid II, respectively. The final concentration of nisin or pentocin ZFM94 was 10 μm, while the concentration of lipid II was 20 μm. The mixture was maintained at 4°C for 1 h. The changes in the antibacterial activity were detected by the agar well-diffusion method. Micrococcus luteus 10209 was used as the indicator. Then, the size of the inhibition zone was observed.

[2] = cited from earlier work
Protocol: It retained 80.37% of its original antibacterial activity after heating at 80°C for 30 min. The antibacterial activity of pentocin ZFM94 was stable at pH 2–7. […] Pentocin ZFM94 was sensitive to trypsin and pepsin, but not to amylase, lysozyme, lipase, and ribonuclease A. Studies have reported that leuconocin S and carnocin 5 ...

nisin (I[Dhb]AI[Dha]LC[Abu]PGCK[Abu]GALMGCNMK[Abu]A[Abu]CHCSIHV[Dha]K; thioether (positions not given here); not fully specified (residues 7, 11, 19, 26, 28, bridges); also: lantibiotic: thioether bridges and dehydrated residues, places not given here; UniProt P13068 24-57, looked up)
antibacterial effect after mixing with lipid II [1]: disappeared | activity at pH close to 7 [2]: inactivated
